# Results reported in patent publication US20200206200A1, “PROPHYLACTIC AND/OR THERAPEUTIC AGENT CONTAINING PYRIDYLAMINOACETIC ACID COMPOUND” (priority 2015, published 2020).
# Entries after “also recorded” stand apart in the source; their conditions may differ.
# Tested on: ocular hypertensive monkeys
# Experiment: Intraocular pressure-lowering effect in laser-induced ocular hypertensive monkeys
# Format: in vivo, Macaca fascicularis
# Settings: 0.01 w/v% solution
# Experimental: To investigate the usefulness of the present compound A, an intraocular pressure-lowering effect of the present compound A was tested in experimental animals (ocular hypertensive monkeys). Regarding test solutions, a reference solution not containing the present compound A was used as a control, a solution containing the present compound A was prepared as Example 1 of the invention of the present application, and a latanoprost eye drop was prepared as Comparative Example 1, as shown below.
# To 1.7 g of polyoxyl 35 castor oil, 10 mL of a 0.5% (w/v) disodium edetate/10% (w/v) glycerin solution, 1 mL of a 1% (w/v) benzalkonium chloride solution, 30 mL of purified water, and 50 mL of a 2% (w/v) boric acid/0.2% (w/v) sorbic acid solution were added and dissolved therein. […]
# (2) The intraocular pressure was measured immediately before instillation of one of the test solutions (the above-described control, Example 1, and Comparative Example 1), and employed as the initial intraocular pressure. […]
# (4) After 2 hours, 4 hours, and 6 hours had passed from the instillation of the test solution, one drop of the 0.4% oxybuprocaine hydrochloride eye drop was instilled for local anesthesia to the eye whose intraocular pressure was to be measured, and then the intraocular pressure was measured. In addition, the intraocular pressure was measured three times, and the average value was shown in the results. […]
smiles,measurement,value
"CC(C)OC(=O)CNc1cccc(CN(Cc2ccc(-n3cccn3)cc2)S(=O)(=O)c2cccnc2)n1 [present compound A, isopropyl (6-{ [4-(pyrazol-1-yl)benzyl] (pyridin-3-ylsulfonyl)aminomethyl}pyridin-2-ylamino)acetate]",intraocular pressure-lowering activity (in words),larger than that in the latanoprost-treated group; also recorded: rapidly provided an excellent intraocular pressure-lowering effect
same,time after administration by which excellent intraocular pressure-lowering activity was exhibited,≤ 2 h
